{"source": "patent US8338492B2", "about": "“Films and particles” (priority 2006, dated 2012)", "key": {"[1]": {"system": "Lewis Lung Carcinoma (LLC) cell line", "experiment": "Cell proliferation assay (MTT, 5 days) with paclitaxel", "assay_type": "cell-based, murine", "conditions": "media containing 10% FBS", "procedure": "(§1) Lewis Lung Carcinoma (LLC), Melanoma and Calu6 (human lung cancer) cell lines were plated at 3,000 cells/well and when established, cultured in media with/without paclitaxel."}, "Melanoma cell line": {"system": "Melanoma cell line", "conditions": "5 days, media containing 10% FBS", "method": "Cell proliferation assays testing the effects of paclitaxel were performed using three tumor cell lines. Lewis Lung Carcinoma (LLC), Melanoma and Calu6 (human lung cancer) cell lines were plated at 3,000 cells/well and when established, cultured in media with/without paclitaxel. Some cultures were maintained with optimal growth factors (serum) whereas others were serum starved (non-growing) cultures. At the end of 5 days, tumor cell proliferation was assessed via MTT analysis.\nTo determine the kinetics of the anti-tumor response elicited by paclitaxel-loaded microparticles and to assess for a potential “burst effect” of drug release, a cell proliferation assay comparing paclitaxel-loaded microparticles and DMSO (control) microparticles using the melanoma cell line was run for five consecutive days with a plate undergoing MTT analysis each day for days 2-5. Paclitaxel loaded microparticles and DMSO microparticles were added to serum rich media and individually assessed on tumor cells of the same plate."}, "Tumor cells": {"system": "Tumor cells", "conditions": "estimated", "method": "Cell proliferation assays were utilized to study the effects of paclitaxel-loaded microparticles on tumor growth. Tumor cells were plated at 3000 cells/well and positive (serum-rich) and negative (serum-poor) cultures were used to signify 0% and 100% growth inhibition respectively."}, "[2]": {"system": "Calu6 (human lung cancer) cell line", "experiment": "Cell proliferation assay (MTT, 5 days) with paclitaxel", "assay_type": "cell-based", "conditions": "media containing 10% FBS", "procedure": "as §1"}}}
{"smiles": "CC(=O)O[C@H]1C(=O)[C@@]2(C)[C@H]([C@H](OC(=O)c3ccccc3)[C@]3(O)C[C@H](OC(=O)[C@H](O)[C@@H](NC(=O)c4ccccc4)c4ccccc4)C(C)=C1C3(C)C)[C@]1(OC(C)=O)CO[C@@H]1C[C@@H]2O", "note": "[paclitaxel]", "values": [{"measurement": "paclitaxel concentration that reliably inhibits growth", "setting": "[1]", "value": "1 to 10", "unit": "ng/mL"}, {"measurement": "paclitaxel concentration that reliably inhibits growth", "setting": "Melanoma cell line", "value": "1 to 10", "unit": "ng/mL"}, {"measurement": "range of tumoricidal effects of paclitaxel", "setting": "Tumor cells", "value": "5 to 10", "unit": "ng"}, {"measurement": "paclitaxel concentration that reliably inhibits growth", "setting": "[2]", "value": "1 to 10", "unit": "ng/mL"}]}
